According to patent US12390437B2, “Itaconic acid derivatives and uses thereof intreating an inflammatory disease or a disease associated with an undesirable immune response” (Sitryx Therapeutics Limited, priority 2019, dated 2025):

Tested on: NQO1
Assay: NQO1 enzyme activation assay as a readout of NRF2 activation in THP-1 cells
Type: cell-based
Conditions: Homo sapiens, THP-1; percentage activation at top concentration, normalised to DMF (100%) and vehicle controls
Procedure: NQO1 Enzyme Activation Assay as a Readout of NRF2 Activation in THP-1 Cellular Background
NAD(P)H dehydrogenase [quinone] […] Induction of this gene is concomitant with the inhibition of proinflammatory cytokine transcription and suppression of the inflammatory response (Kobayashi E. H. et al., 2016). The NQO1 enzyme activation activities of compounds of formula (IW-1) were determined using a cellular based NQO1 activation assay (Abcam). The NQO1 activation assay was run in differentiated THP-1 cells (a human monocyte-like cell line) as described below. All reagents described are from Sigma-Aldrich unless specified otherwise. Compounds were prepared as 10 mM DMSO stocks.
THP-1 cells were expanded as a suspension up to 80% confluence in appropriate growth medium. Cells were harvested, suspended, treated with phorbol 12-myristate 13-acetate (PMA) and plated according to the cell density required for each plate format over a 72 hr period (37° C./5% CO2).
Following 72 hrs of THP-1 cell incubation, cellular medium was removed and replaced with fresh media. Working concentrations of compounds were prepared and pre-incubated for 30 minutes (37° C./5% CO2). Compound treatment was then applied to the PMA treated THP-1 cell plate followed by LPS treatment. A ‘low’ (DMSO vehicle only) control and ‘high’ (designated concentration of dimethyl fumarate) was applied to each plate at the point of compound treatment. Cells were subsequently incubated for a 48 hr period (37° C./5% C02) after which all NQO1 assay reagents were prepared according to the manufacturer's instructions. NQO1 extraction buffer was applied to PBS washed THP-1 cells and incubated on ice for 15 minutes to prepare THP-1 lysates for the NQO1 activity assay. THP-1 lysates were diluted 1:5 with PBS and treated with a 1:1 volume of kit prepared NQO1 Reaction Buffer. Absorbance was subsequently measured kinetically on an appropriate reader over a 6 minute period.
For activation determination, the fold change in response per well was determined by first calculating the average NQO1 activation data for the vehicle control and then dividing the individual well response by the averaged NQO1 response for the vehicle control as shown below: Fold change=(Sample value)/MeanMin Where ‘Min’=vehicle control only
The relative 50% activation concentration (EC50) was determined from the resulting fold change response curve. The maximum efficacy (Emax) was reported as the percentage activation calculated at the top concentration of compound used in the titration applied. If a full curve was unattainable preventing a correct curve fit, the Emax value was extrapolated using existing curve data. All percentage activation data were normalised to the DMF and vehicle controls, meaning the Emax represents the percentage […] achieved by a compound at a particular concentration relative to that achieved by DMF (set as the ‘High’ control and therefore representative of 100% activation).

| Compound | Emax [%] |
| --- | --- |
| C=C(CC(=O)OCCCCCCCC)C(=O)OCCCS(C)(=O)=O [Example 18, 1-(3-(methylsulfonyl)propyl) 4-octyl 2-methylenesuccinate] | 67 |
| C=C(CC(=O)OCCCCCCCC)C(=O)OC(C)CS(C)(=O)=O (stereo not drawn) [Example 19, 1-(1-(methylsulfonyl)propan-2-yl) 4-octyl 2-methylenesuccinate] | 44 |
| C=C(CC(=O)OCCCCCCCC)C(=O)OCC(=O)N(C)C [Example 21, 1-(2-(dimethylamino)-2-oxoethyl) 4-octyl 2-methylenesuccinate] | 150 |
| C=C(CC(=O)OCCCC)C(=O)OC1COC1 [Example 37, 4-butyl 1-(oxetan-3-yl) 2-methylenesuccinate] | 105 |
| C=C(CC(=O)OCCCCCC)C(=O)OC1COC1 [Example 38, 4-hexyl 1-(oxetan-3-yl) 2-methylenesuccinate] | 111 |
| C=C(CC(=O)OCCCC)C(=O)OCCS(=O)(=O)c1ccc(C)cc1 [Example 39, 4-butyl 1-(2-tosylethyl) 2-methylenesuccinate] | 59 |
| C=C(CC(=O)OC1CCCCCCC1)C(=O)OC [Example 41, 4-cyclooctyl 1-methyl 2-methylenesuccinate] | 129 |
| C=C(CC(=O)OCCCCCCCC)C(=O)OC [Example 42, 1-methyl 4-octyl 2-methylenesuccinate] | 66 |
| C=C(CC(=O)OC1CCC1)C(=O)OC1CCC1 [Example 43, dicyclobutyl 2-methylenesuccinate] | 150 |
| C=C(CC(=O)OC1COC1)C(=O)OC1COC1 [Example 44, di(oxetan-3-yl) 2-methylenesuccinate] | 217 |
| C=C(CC(=O)OCCCCCCCC)C(=O)OC1CCC1 [Example 45, 1-cyclobutyl 4-octyl 2-methylenesuccinate] | 72 |

Same assay, conditions: Homo sapiens; differentiated THP-1 cells, LPS, 48 hr

| EC50 [µM] | Compound |
| --- | --- |
| 5.4 | C=C(CC(=O)OCCCCCCCC)C(=O)OCCCS(C)(=O)=O [Example 18, 1-(3-(methylsulfonyl)propyl) 4-octyl 2-methylenesuccinate] |
| 51 | C=C(CC(=O)OCCCCCCCC)C(=O)OC(C)CS(C)(=O)=O (stereo not drawn) [Example 19, 1-(1-(methylsulfonyl)propan-2-yl) 4-octyl 2-methylenesuccinate] |
| 12.1 | C=C(CC(=O)OCCCCCCCC)C(=O)OCC(=O)N(C)C [Example 21, 1-(2-(dimethylamino)-2-oxoethyl) 4-octyl 2-methylenesuccinate] |
| 21 | C=C(CC(=O)OCCCC)C(=O)OC1COC1 [Example 37, 4-butyl 1-(oxetan-3-yl) 2-methylenesuccinate] |
| 8.5 | C=C(CC(=O)OCCCCCC)C(=O)OC1COC1 [Example 38, 4-hexyl 1-(oxetan-3-yl) 2-methylenesuccinate] |
| 1.3 | C=C(CC(=O)OCCCC)C(=O)OCCS(=O)(=O)c1ccc(C)cc1 [Example 39, 4-butyl 1-(2-tosylethyl) 2-methylenesuccinate] |
| 38.1 | C=C(CC(=O)OC1CCCCCCC1)C(=O)OC [Example 41, 4-cyclooctyl 1-methyl 2-methylenesuccinate] |
| 24.3 | C=C(CC(=O)OCCCCCCCC)C(=O)OC [Example 42, 1-methyl 4-octyl 2-methylenesuccinate] |
| 170 | C=C(CC(=O)OC1CCC1)C(=O)OC1CCC1 [Example 43, dicyclobutyl 2-methylenesuccinate] |
| 64.6 | C=C(CC(=O)OC1COC1)C(=O)OC1COC1 [Example 44, di(oxetan-3-yl) 2-methylenesuccinate] |
| 1.6 | C=C(CC(=O)OCCCCCCCC)C(=O)OC1CCC1 [Example 45, 1-cyclobutyl 4-octyl 2-methylenesuccinate] |

Tested on: IL-1β cytokine output from THP-1s
Assay: THP-1 AlphaLISA IL-1β cytokine assay
Type: cell-based, human
Conditions: Homo sapiens, THP-1, PMA-differentiated THP-1 cells, LPS 24 hr then Nigericin 1 hour; read-out: IL-1β (IC50)
Summary of the method: (§1)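 Cells are differentiated with PMA over 72 h, switched to 1% FBS medium and treated with compound for 30 min before LPS stimulation for 24 h. Nigericin is added for a final hour, and secreted cytokine is measured by AlphaLISA, with IC50 fitted from percent inhibition.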

| IC50 [µM] | Compound |
| --- | --- |
| 3.6 | C=C(CC(=O)OCCCCCCCC)C(=O)OC(C)CS(C)(=O)=O (stereo not drawn) [Example 19, 1-(1-(methylsulfonyl)propan-2-yl) 4-octyl 2-methylenesuccinate] |
| 2.9 | C=C(CC(=O)OCCCCCCCC)C(=O)OCC(=O)N(C)C [Example 21, 1-(2-(dimethylamino)-2-oxoethyl) 4-octyl 2-methylenesuccinate] |
| 7.4 | C=C(CC(=O)OCCCCCC)C(=O)OC1COC1 [Example 38, 4-hexyl 1-(oxetan-3-yl) 2-methylenesuccinate] |
| 5.1 | C=C(CC(=O)OCCCC)C(=O)OCCS(=O)(=O)c1ccc(C)cc1 [Example 39, 4-butyl 1-(2-tosylethyl) 2-methylenesuccinate] |

Tested on: IL-6 cytokine output from THP-1s
Assay: THP-1 AlphaLISA IL-6 cytokine assay
Type: cell-based, human
Conditions: Homo sapiens; PMA-differentiated THP-1 cells, LPS 24 hr then Nigericin 1 hour
Summary of the method: as §1

| IC50 [µM] | Compound |
| --- | --- |
| 1.9 | C=C(CC(=O)OCCCCCCCC)C(=O)OC(C)CS(C)(=O)=O (stereo not drawn) [Example 19, 1-(1-(methylsulfonyl)propan-2-yl) 4-octyl 2-methylenesuccinate] |
| 2.4 | C=C(CC(=O)OCCCCCCCC)C(=O)OCC(=O)N(C)C [Example 21, 1-(2-(dimethylamino)-2-oxoethyl) 4-octyl 2-methylenesuccinate] |
| 6.8 | C=C(CC(=O)OCCCCCC)C(=O)OC1COC1 [Example 38, 4-hexyl 1-(oxetan-3-yl) 2-methylenesuccinate] |
| 7.3 | C=C(CC(=O)OCCCC)C(=O)OCCS(=O)(=O)c1ccc(C)cc1 [Example 39, 4-butyl 1-(2-tosylethyl) 2-methylenesuccinate] |
